The source of these data is PubChem BioAssay (NCI).

Structures are written as SMILES.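 Following 48 hours of exposure in 96-well plates, responses at five concentrations were used to interpolate endpoints linearly. GI50 marks 50% less growth. TGI marks complete inhibition of growth.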

Some test systems named below: MDA-MB-231 breast; HL-60(TB) leukemia; IGROV1 ovarian; HOP-92 NSCLC; UACC-257 melanoma; MALME-3M melanoma; NCI/ADR-RES ovarian; SK-MEL-5 melanoma; OVCAR-3 ovarian; A549 NSCLC.
What all share (test): growth of human tumour cells (NCI), 48 h

With `COc1cc(Cl)c(CC(=O)c2c[nH]c3ccccc23)cc1OC`, the TGI with MDA-MB-231 breast is greater than 52.6 µM; with HL-60(TB) leukemia it was greater than 67.3 µM; in the assay with IGROV1 ovarian, greater than 100 µM; in the assay on HOP-92 NSCLC it was 15.6 µM; in the assay on UACC-257 melanoma, greater than 100 µM; with MALME-3M melanoma, greater than 100 µM. In addition, the TGI in the assay on NCI/ADR-RES ovarian, in the assay with SK-MEL-5 melanoma, in the assay with OVCAR-3 ovarian and with A549 NSCLC was greater than 100 µM throughout.
As to `COc1ccc2nc(C)cc(Sc3nc4ccccc4s3)c2c1`, the GI50 is 1.05 µM with MDA-MB-231 breast; 0.533 µM in the assay on HL-60(TB) leukemia; 2.2 µM in the assay with IGROV1 ovarian; 0.475 µM in the assay with HOP-92 NSCLC; 4.25 µM in the assay with UACC-257 melanoma; 0.426 µM in the assay on MALME-3M melanoma. The GI50 was 1.43 µM with NCI/ADR-RES ovarian, 2.88 µM in the assay with SK-MEL-5 melanoma, 1.47 µM in the assay with OVCAR-3 ovarian and 2.21 µM in the assay with A549 NSCLC. For the same compound, the TGI in the assay on MDA-MB-231 breast worked out at 5.93 µM; in the assay on HL-60(TB) leukemia it was 2.63 µM; with IGROV1 ovarian it was 13.9 µM; in the assay on HOP-92 NSCLC, 6.25 µM; in the assay with UACC-257 melanoma, 25.5 µM; with MALME-3M melanoma it was 11.9 µM. Moreover, the TGI in the assay on NCI/ADR-RES ovarian is 4.42 µM; in the assay with SK-MEL-5 melanoma it was 13.5 µM; in the assay on OVCAR-3 ovarian, 3.3 µM; in the assay with A549 NSCLC it was 14.2 µM.
Regarding `NC(N)=NC(N)=Nc1ccc(C(=O)O)cc1`, the TGI in the assay with MDA-MB-231 breast, in the assay on HL-60(TB) leukemia, in the assay on IGROV1 ovarian, in the assay on HOP-92 NSCLC, with UACC-257 melanoma and with MALME-3M melanoma was greater than 100 µM throughout. Further, the TGI in the assay on NCI/ADR-RES ovarian, in the assay with SK-MEL-5 melanoma, in the assay with OVCAR-3 ovarian and in the assay with A549 NSCLC was greater than 100 µM each time.
As for `O=C1OCC2=C1C(c1cccc(C(F)(F)F)c1)c1cc3c(cc1N2CCO)OCCO3` (stereo not given), the GI50 in the assay on MDA-MB-231 breast is 1.7 µM; with HL-60(TB) leukemia, 0.875 µM; in the assay with IGROV1 ovarian, 2.75 µM; with HOP-92 NSCLC, 2.7 µM; with UACC-257 melanoma, greater than 33.3 µM; in the assay on MALME-3M melanoma it was 2.86 µM. The GI50 in the assay on NCI/ADR-RES ovarian is 1.11 µM; in the assay with SK-MEL-5 melanoma, 0.997 µM; with OVCAR-3 ovarian, 1.24 µM; in the assay with A549 NSCLC, 1.53 µM. The TGI in the assay with MDA-MB-231 breast was greater than 33.3 µM; with HL-60(TB) leukemia, 2.44 µM; in the assay on IGROV1 ovarian, greater than 33.3 µM; with HOP-92 NSCLC it was greater than 33.3 µM; with UACC-257 melanoma, greater than 33.3 µM; in the assay on MALME-3M melanoma, greater than 33.3 µM. Besides, the TGI with NCI/ADR-RES ovarian was greater than 33.3 µM; in the assay on SK-MEL-5 melanoma, 6.97 µM; in the assay with OVCAR-3 ovarian, greater than 33.3 µM; in the assay with A549 NSCLC it was greater than 33.3 µM.
With `COc1ccc(C2NN=C3c4ccccc4CCC32)cc1` (stereo not given), the GI50 in the assay with MDA-MB-231 breast is 17.8 µM; in the assay on HL-60(TB) leukemia it was 1.92 µM; with IGROV1 ovarian, 2.7 µM; with HOP-92 NSCLC it was 19.4 µM; with UACC-257 melanoma, 19.4 µM; with MALME-3M melanoma, 5.22 µM. For the same compound, the GI50 in the assay with NCI/ADR-RES ovarian is 3.99 µM; with SK-MEL-5 melanoma it was 3.62 µM; with OVCAR-3 ovarian it was 3.38 µM; in the assay on A549 NSCLC, 19.7 µM. The TGI was greater than 100 µM with MDA-MB-231 breast; 5.27 µM in the assay with HL-60(TB) leukemia; 21.4 µM in the assay with IGROV1 ovarian; greater than 100 µM with HOP-92 NSCLC; 79.4 µM with UACC-257 melanoma; 38.4 µM with MALME-3M melanoma. For the same compound, the TGI in the assay on NCI/ADR-RES ovarian amounted to 38.3 µM; with SK-MEL-5 melanoma, 17.1 µM; in the assay on OVCAR-3 ovarian, 14.9 µM; in the assay with A549 NSCLC, 76.6 µM.
For the compound `CC(=O)c1c[nH]c2ccc(-c3ccnc(Nc4ccc(NC(=O)C5CCCC5)c(CN5CCOCC5)c4)n3)cc12`, the GI50 is 0.0315 µM in the assay on MDA-MB-231 breast; 0.0253 µM in the assay on HL-60(TB) leukemia; 0.0366 µM in the assay with IGROV1 ovarian; 0.0284 µM with HOP-92 NSCLC; 0.0349 µM with UACC-257 melanoma; 0.0431 µM in the assay on MALME-3M melanoma. For the same compound, the GI50 was 0.306 µM in the assay on NCI/ADR-RES ovarian, 0.0246 µM with SK-MEL-5 melanoma, 0.0267 µM in the assay on OVCAR-3 ovarian and 0.0312 µM in the assay on A549 NSCLC. The TGI was 0.294 µM in the assay with MDA-MB-231 breast; 0.0727 µM in the assay with HL-60(TB) leukemia; 0.377 µM with IGROV1 ovarian; 0.365 µM in the assay with HOP-92 NSCLC; 0.175 µM with UACC-257 melanoma; 0.151 µM with MALME-3M melanoma. The TGI with NCI/ADR-RES ovarian amounted to 2.96 µM; in the assay on SK-MEL-5 melanoma, 0.0685 µM; in the assay with OVCAR-3 ovarian it was 0.678 µM; with A549 NSCLC, 1.54 µM.
Take `COc1ccc2c(c1O)[C@@]13CCCC=C1[C@@H](C2)[N+](C)(C)CC3`: the TGI with MDA-MB-231 breast, with HL-60(TB) leukemia, with IGROV1 ovarian, in the assay on HOP-92 NSCLC, in the assay with UACC-257 melanoma and in the assay on MALME-3M melanoma was greater than 100 µM in each case. Further, the TGI with NCI/ADR-RES ovarian, in the assay with SK-MEL-5 melanoma, in the assay with OVCAR-3 ovarian and in the assay with A549 NSCLC was greater than 100 µM throughout.
